Experimental data from US10639287B2, “Compounds for the treatment of mitochondrial diseases” (UNIVERSITE PARIS-SUD, priority 2014, dated 2020).

How the values were obtained:
[1] = system: complex I in neuronal cybrids derived from a MELAS patient (m.3243A>G tRNA^Leu mutation); test: Ratio of complex I/citrate synthase activities in MELAS neuronal cybrids; format: cell-based, human; conditions: 1 μM or 300 nM, 48 hours
Procedure: The mutant MELAS neuronal transmitochondrial line, which is the result of the fusion of the immortalised neuoroblastoma parental line SHSY-5Y with fibroblasts carrying the mutation m.3243A>G, was created in the laboratory of Prof. Procaccio.
Neuronal cybrid lines carrying the MELAS mutation and the parental control line were grown in sterile culture flasks and incubated at 37° C. with 5% CO2 in a medium composed of DMEM with 1.5 g/L glucose, 2 mM L-glutamine and supplemented with 10% foetal bovine serum as well as uridine (5 μg/ml) and pyruvate (10 μg/mL). […]
(§1) The MELAS neuronal cybrid line carrying the mutation seemingly in the homoplasmic state (i.e. reaching almost 100% MELAS mutation) and the SHSY-5Y parental control line were used for measurements of enzyme activities. […] These cell pellets were then analysed by spectrophotometry with measurement of the different mitochondrial biochemical activities, particularly the activity of citrate synthase and the activity of complex I of the respiratory chain. […]
The enzymatic activities were measured according to the protocol described in Medjda et al, 2009 (Medja F, Allouche S, Frachon P, Jardel C, Malgat M, Mousson de Camaret B, Slama A, Lunardi J, Mazat J P, Lombès A. Development and implementation of standardized respiratory chain spectrophotometric assays for clinical diagnosis. Mitochondrion. 2009 September; 9(5):331-9).

[2] = system: neuronal cybrids derived from a MELAS patient (m.3243A>G tRNA^Leu mutation); test: Lactate production of MELAS neuronal cybrids; format: cell-based, human; conditions: 1 μM or 300 nM, 48 hours
Procedure: The increase in the lactate production is the result of a toxicity of the drug used, but also of a mitochondrial dysfunction (energy deficiency) present in MELAS syndrome.
Neuronal cybrid lines carrying the MELAS mutation and the parental control line were grown in sterile culture flasks and incubated at 37° C. with 5% CO2 in a medium composed of DMEM with 1.5 g/L glucose, 2 mM L-glutamine and supplemented with 10% foetal bovine serum as well as uridine (5 μg/ml) and pyruvate (10 μg/mL). The cells were harvested by trypsinisation in exponential phase and were used for subsequent biochemical or molecular mitochondrial analyses.
as §1
The lactate concentration of the culture medium for neuronal cybrid and parental cells was determined by spectrophotometry using an enzymatic kit (Bohringer) on a Hitachi-Roche apparatus (Roche Diagnostics GmbH). […]

For `CCCCCCCN(CC)CCCC(O)c1ccc(NS(C)(=O)=O)cc1` (centres unmarked) [ibutilide], the “activity of complex I (ratio complex I/citrate synthase)” value [1] was “increased” and the production of lactate [2] was “decreased”.
